This note sets out measurements from patent US9079901B2, “Fused heterocyclic compounds as ion channel modulators” (Gilead Sciences, Inc., priority 2010, dated 2015).

The assay has as its target wild-type human cardiac sodium channel, hNav1.5 (late sodium current) in HEK293 cells (Homo sapiens, UniProt Q14524). Nature of the assay: Late INa screening assay (automated whole-cell patch clamp, PatchXpress). The following applies: HEK293, compound at 1 μM; late INa generated with 10 μM Tefluthrin (or 50 nM ATX II); HEK293 hNav1.5; read-out: Late INa 1 μM (percent block of late INa). The assay is classed as cell-based. Put shortly:
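hNav1.5-expressing HEK293 cells (no β subunits) were recorded by automated whole-cell patch clamp at 24–27 °C with CsF-based internal solution. Late current was induced by 10 μM tefluthrin (or 50 nM ATX II) and evoked by 250 ms steps from −120 to −20 mV at 0.1 Hz. Compounds, typically 10 μM, were applied in three additions over 7–8 min; mean current at 225–250 ms, normalised to 0Na baseline, gave percent block.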

wild-type human cardiac sodium channel, hNav1.5 (late sodium current) in HEK293 cells, sequence (Q14524 whole entry): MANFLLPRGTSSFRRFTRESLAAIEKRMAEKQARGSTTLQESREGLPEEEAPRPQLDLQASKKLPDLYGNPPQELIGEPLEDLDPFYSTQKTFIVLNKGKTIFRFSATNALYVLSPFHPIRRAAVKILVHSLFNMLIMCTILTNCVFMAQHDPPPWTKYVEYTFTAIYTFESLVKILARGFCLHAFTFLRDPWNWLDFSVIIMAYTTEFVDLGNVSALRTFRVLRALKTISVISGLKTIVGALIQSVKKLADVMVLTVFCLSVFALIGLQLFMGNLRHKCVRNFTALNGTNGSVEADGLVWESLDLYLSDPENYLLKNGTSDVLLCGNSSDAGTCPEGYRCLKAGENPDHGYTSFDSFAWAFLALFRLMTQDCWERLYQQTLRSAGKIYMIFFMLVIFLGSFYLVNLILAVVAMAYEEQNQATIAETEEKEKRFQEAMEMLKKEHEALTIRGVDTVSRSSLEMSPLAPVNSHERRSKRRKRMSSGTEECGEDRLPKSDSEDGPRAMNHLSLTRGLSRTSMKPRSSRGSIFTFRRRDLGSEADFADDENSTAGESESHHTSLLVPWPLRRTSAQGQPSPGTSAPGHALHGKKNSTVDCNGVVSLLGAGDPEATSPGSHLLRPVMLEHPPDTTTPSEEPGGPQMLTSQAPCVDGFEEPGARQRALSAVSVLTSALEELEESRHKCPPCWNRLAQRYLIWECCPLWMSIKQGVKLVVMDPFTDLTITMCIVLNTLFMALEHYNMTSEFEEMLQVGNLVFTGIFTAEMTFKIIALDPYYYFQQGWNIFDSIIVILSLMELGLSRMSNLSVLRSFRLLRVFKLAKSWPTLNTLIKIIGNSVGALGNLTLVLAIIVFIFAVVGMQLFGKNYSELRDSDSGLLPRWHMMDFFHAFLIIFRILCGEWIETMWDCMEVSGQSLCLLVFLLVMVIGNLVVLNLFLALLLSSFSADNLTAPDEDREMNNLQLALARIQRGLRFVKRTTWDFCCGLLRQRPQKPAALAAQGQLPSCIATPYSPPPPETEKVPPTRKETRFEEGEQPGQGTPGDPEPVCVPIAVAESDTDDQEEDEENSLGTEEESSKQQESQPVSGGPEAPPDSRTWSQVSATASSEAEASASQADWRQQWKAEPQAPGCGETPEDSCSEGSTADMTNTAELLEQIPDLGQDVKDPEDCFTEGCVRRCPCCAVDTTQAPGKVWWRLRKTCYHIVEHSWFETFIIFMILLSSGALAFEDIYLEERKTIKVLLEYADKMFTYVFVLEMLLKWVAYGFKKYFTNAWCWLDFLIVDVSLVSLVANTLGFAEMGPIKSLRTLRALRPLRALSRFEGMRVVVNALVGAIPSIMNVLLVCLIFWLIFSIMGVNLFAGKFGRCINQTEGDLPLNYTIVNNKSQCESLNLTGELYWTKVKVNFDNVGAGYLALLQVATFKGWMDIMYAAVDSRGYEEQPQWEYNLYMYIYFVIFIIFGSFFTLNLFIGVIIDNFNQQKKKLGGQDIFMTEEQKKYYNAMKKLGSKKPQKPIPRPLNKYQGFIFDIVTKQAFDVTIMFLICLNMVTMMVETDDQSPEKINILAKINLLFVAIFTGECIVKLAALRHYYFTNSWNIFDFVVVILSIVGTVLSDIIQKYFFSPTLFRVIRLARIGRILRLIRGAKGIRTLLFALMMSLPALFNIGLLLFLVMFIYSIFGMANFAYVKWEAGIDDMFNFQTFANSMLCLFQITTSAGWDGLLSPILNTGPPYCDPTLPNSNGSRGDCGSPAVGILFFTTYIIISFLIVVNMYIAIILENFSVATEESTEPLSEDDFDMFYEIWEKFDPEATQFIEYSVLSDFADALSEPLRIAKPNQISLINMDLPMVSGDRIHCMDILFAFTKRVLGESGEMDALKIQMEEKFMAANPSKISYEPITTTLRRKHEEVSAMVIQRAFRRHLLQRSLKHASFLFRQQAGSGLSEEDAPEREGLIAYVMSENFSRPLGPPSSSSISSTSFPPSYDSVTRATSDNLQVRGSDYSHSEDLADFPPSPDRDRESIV

Turning to `CCOc1ccccc1OCc1nc(Cn2nc3ccc(-c4ccc(OC(F)(F)F)cc4)cn3c2=O)no1` [compound 176, 2-((5-((2-ethoxyphenoxy)methyl)-1,2,4-oxadiazol-3-yl)methyl)-6-(4-(trifluoromethoxy)phenyl)-[1,2,4]triazolo[4,3-a]pyridin-3(2H)-one], the inhibition at 1 µM was found to be 25.5%.

As to `CC(C)Oc1ccnc(OCCn2nc3ccc(-c4ccc(OC(F)(F)F)cc4)cn3c2=O)n1` [compound 177, 2-(2-(4-isopropoxypyrimidin-2-yloxy)ethyl)-6-(4-(trifluoromethoxy)phenyl)-[1,2,4]triazolo[4,3-a]pyridin-3(2H)-one], the inhibition at 1 µM is 25.8%.

For `O=c1n(CCOc2nccc(OCC(F)(F)F)n2)nc2ccc(-c3ccc(OC(F)(F)F)cc3)cn12` [compound 178, 2-(2-(4-(2,2,2-trifluoroethoxy)pyrimidin-2-yloxy)ethyl)-6-(4-(trifluoromethoxy)phenyl)-[1,2,4]triazolo[4,3-a]pyridin-3(2H)-one], the inhibition at 1 µM stood at 14.2%.

Consider `O=c1n(CCOc2nccc(OCC3CC3)n2)nc2ccc(-c3ccc(OC(F)(F)F)cc3)cn12` [compound 179, 2-(2-(4-(cyclopropylmethoxy)pyrimidin-2-yloxy)ethyl)-6-(4-(trifluoromethoxy)phenyl)-[1,2,4]triazolo[4,3-a]pyridin-3(2H)-one], for which the inhibition at 1 µM came to 30.3%.

`O=c1n(CCOc2ncc(C(F)(F)F)cn2)nc2ccc(-c3ccc(OC(F)(F)F)cc3)cn12` [compound 180, 6-(4-(trifluoromethoxy)phenyl)-2-(2-(5-(trifluoromethyl)pyrimidin-2-yloxy)ethyl)-[1,2,4]triazolo[4,3-a]pyridin-3(2H)-one]: the inhibition at 1 µM is 22.6%.

Take `O=c1n(Cc2coc(C3CC3)n2)nc2ccc(-c3ccc(OC(F)(F)F)cc3)cn12` [compound 181, 2-((2-cyclopropyloxazol-4-yl)methyl)-6-(4-(trifluoromethoxy)phenyl)-[1,2,4]triazolo[4,3-a]pyridin-3(2H)-one]: the inhibition at 1 µM stood at 23.9%.

Consider `O=c1n(Cc2nnc(C3CC3)o2)nc2ccc(-c3ccc(Oc4ccc(F)cc4)cc3)cn12` [compound 182, 2-((5-cyclopropyl-1,3,4-oxadiazol-2-yl)methyl)-6-(4-(4-fluorophenoxy)phenyl)-[1,2,4]triazolo[4,3-a]pyridin-3(2H)-one], for which the inhibition at 1 µM is 45.9%.

As to `CC(C)(C)c1cnc(Cn2nc3ccc(-c4ccc(OC(F)(F)F)cc4)cn3c2=O)o1` [compound 183, 2-((5-tert-butyloxazol-2-yl)methyl)-6-(4-(trifluoromethoxy)phenyl)-[1,2,4]triazolo[4,3-a]pyridin-3(2H)-one], the inhibition at 1 µM was found to be 14.6%.

As for `CC(C)(C)c1cnc(Cn2nc3ccc(-c4ccc(C(F)(F)F)cc4)cn3c2=O)o1` [compound 184, 2-((5-tert-butyloxazol-2-yl)methyl)-6-(4-(trifluoromethyl)phenyl)-[1,2,4]triazolo[4,3-a]pyridin-3(2H)-one], the inhibition at 1 µM amounted to 18.9%.

Turning to `Cn1nc2ccc(-c3ccc(C(F)(F)F)cc3)cn2c1=O` [compound 185, 2-methyl-6-(4-(trifluoromethyl)phenyl)-[1,2,4]triazolo[4,3-a]pyridin-3(2H)-one], the inhibition at 1 µM amounted to 10.1%.

As to `O=c1n(CCN2CC[C@@H](Oc3ccc(F)cc3)C2)nc2ccc(-c3ccc(OC(F)(F)F)cc3)cn12` [compound 186, (R)-2-(2-(3-(4-fluorophenoxy)pyrrolidin-1-yl)ethyl)-6-(4-(trifluoromethoxy)phenyl)-[1,2,4]triazolo[4,3-a]pyridin-3(2H)-one], the inhibition at 1 µM was 37.3%.

Regarding `Cc1c(-c2ccc(OC(F)(F)F)cc2)ccc2n[nH]c(=O)n12` [compound 187, 5-methyl-6-(4-(trifluoromethoxy)phenyl)-[1,2,4]triazolo[4,3-a]pyridin-3(2H)-one], the inhibition at 1 µM came to 29.8%.

Regarding `Cc1noc(Cn2nc3ccc(-c4ccc(OC(F)(F)F)cc4)c(C)n3c2=O)n1` [compound 188, 5-methyl-2-((3-methyl-1,2,4-oxadiazol-5-yl)methyl)-6-(4-(trifluoromethoxy)phenyl)-[1,2,4]triazolo[4,3-a]pyridin-3(2H)-one], the inhibition at 1 µM was 17.3%.

For the molecule `O=c1n(CC(F)(F)F)nc2ccc(-c3ccc(OC(F)(F)F)cc3)cn12` [compound 189, 2-(2,2,2-trifluoroethyl)-6-(4-(trifluoromethoxy)phenyl)-[1,2,4]triazolo[4,3-a]pyridin-3(2H)-one], the inhibition at 1 µM is 15.3%.

In the case of `CC(C)n1nc2ccc(-c3ccc(OC(F)(F)F)cc3)cn2c1=O` [compound 190, 2-isopropyl-6-(4-(trifluoromethoxy)phenyl)-[1,2,4]triazolo[4,3-a]pyridin-3(2H)-one], the inhibition at 1 µM came out at 17.6%.

With `Cc1coc(Cn2nc3ccc(-c4ccc(OC(F)(F)F)cc4)cn3c2=O)n1` [compound 191, 2-((4-methyloxazol-2-yl)methyl)-6-(4-(trifluoromethoxy)phenyl)-[1,2,4]triazolo[4,3-a]pyridin-3(2H)-one], the inhibition at 1 µM came to 28.9%.

Turning to `Cc1coc(Cn2nc3ccc(-c4ccc(C(F)(F)F)cc4)cn3c2=O)n1` [compound 192, 2-((4-methyloxazol-2-yl)methyl)-6-(4-(trifluoromethyl)phenyl)-[1,2,4]triazolo[4,3-a]pyridin-3(2H)-one], the inhibition at 1 µM worked out at 34.4%.

As for `O=c1n(Cc2nc(C3CC3)co2)nc2ccc(-c3ccc(OC(F)(F)F)cc3)cn12` [compound 193, 2-((4-cyclopropyloxazol-2-yl)methyl)-6-(4-(trifluoromethoxy)phenyl)-[1,2,4]triazolo[4,3-a]pyridin-3(2H)-one], the inhibition at 1 µM came to 33.8%.

With `O=c1n(Cc2nc(C3CC3)co2)nc2ccc(-c3ccc(C(F)(F)F)cc3)cn12` [compound 194, 2-((4-cyclopropyloxazol-2-yl)methyl)-6-(4-(trifluoromethyl)phenyl)-[1,2,4]triazolo[4,3-a]pyridin-3(2H)-one], the inhibition at 1 µM stood at 21.6%.

With `Cc1cnc(Cn2nc3ccc(-c4ccc(Cl)cc4)cn3c2=O)o1` [compound 195, 6-(4-chlorophenyl)-2-((5-methyloxazol-2-yl)methyl)-[1,2,4]triazolo[4,3-a]pyridin-3(2H)-one], the inhibition at 1 µM is 31.2%.

For the molecule `Cc1cc(-c2ccc(OC(F)(F)F)cc2)cn2c(=O)[nH]nc12` [compound 196, 8-methyl-6-(4-(trifluoromethoxy)phenyl)-[1,2,4]triazolo[4,3-a]pyridin-3(2H)-one], the inhibition at 1 µM turned out to be 38.3%.

As to `Cc1ncc(Cn2nc3ccc(-c4ccc(C(F)(F)F)cc4)cn3c2=O)o1` [compound 197, 2-((2-methyloxazol-5-yl)methyl)-6-(4-(trifluoromethyl)phenyl)-[1,2,4]triazolo[4,3-a]pyridin-3(2H)-one], the inhibition at 1 µM amounted to 19.7%.

On to `COc1cc(Cl)c(Cl)cc1OCC(O)Cn1nc2ccc(-c3ccc(C(F)(F)F)cc3)cn2c1=O` (centres unmarked) [compound 198, 2-(3-(4,5-dichloro-2-methoxyphenoxy)-2-hydroxypropyl)-6-(4-(trifluoromethyl)phenyl)-[1,2,4]triazolo[4,3-a]pyridin-3(2H)-one], for which the inhibition at 1 µM worked out at 14.8%.

Take `O=c1n(Cc2ncc(C3CC3)o2)nc2ccc(-c3ccc(OC(F)(F)F)cc3)cn12` [compound 199, 2-((5-cyclopropyloxazol-2-yl)methyl)-6-(4-(trifluoromethoxy)phenyl)-[1,2,4]triazolo[4,3-a]pyridin-3(2H)-one]: the inhibition at 1 µM stood at 22.5%.

Regarding `O=c1[nH]nc2ccc(-c3ccc(OC(F)(F)F)cc3)cn12` [compound 200, 6-(4-(trifluoromethoxy)phenyl)-[1,2,4]triazolo[4,3-a]pyridin-3(2H)-one], the inhibition at 1 µM came to 26.5%.

Consider `Cn1nc2ccc(-c3ccc(OC(F)(F)F)cc3)cn2c1=O` [compound 201, 2-methyl-6-(4-(trifluoromethoxy)phenyl)-[1,2,4]triazolo[4,3-a]pyridin-3(2H)-one], for which the inhibition at 1 µM is 38.7%.
